In patent publication US20260207720A1, “COMPOSITIONS AND METHODS FOR TREATING FUNGAL INFECTIONS” (MUCPharm Pty Ltd, priority 2022, published 2026):
Converted amounts (≈) assume the structure as drawn. Like-named read-outs stand apart in the source and are kept apart here.

Experiments:
Format in all cases: cell-based
[1] = system: Aspergillus fumigatus (ATCC strain 13697); assay: Broth dilution susceptibility test, MIC and percent growth (Example 7); details: for MIC: FIGS. 13a, 14a; for effect at lower concentrations (in words): Voriconazole 1 μg/ml and 0.5 μg/ml, Caspofungin 0.25 μg/ml and 0.125 μg/ml
Protocol: (§1) A. Preparation of inoculum: • 1. Candida glabrata was grown on Sabouraud dextrose agar (SDA) at 37° C. for 24-48 hrs. • 2. Following this, 5 colonies of 1 mm diameter were picked and suspended in 5 mL sterile saline (0.9% saline) and vortexed for 15 seconds. • 3. Working suspension is prepared as a 1:100 dilution from stock suspension with RPMI 1640 culture medium. • 4. The cell density is adjusted with a spectrophotometer to the transmittance produced by a 0.5 McFarland standard (0.08 to 0.1) OD at 625 nm wavelength.
(§2) • 1. For Bromelain, a stock concentration of 1 mg/ml Bromelain solution was prepared in RPMI media and diluted to test concentrations of 62.4, 31.2, 15.6 and 7.8 μg/ml in RPMI 1640 media. • 2. Acetylcysteine stock concentration is 200 mg/ml, diluted to 40, 20, 10, and 5 mg/ml concentrations in RPMI 1640 medium. • 3. These concentrations are prepared at 2× of the required concentrations in the final assay plate.
(§3) Antifungal stock concentrations are as follows— • 1. Amphotericin B, Stock concentration: 250 μg/ml in water. • 2. Posaconazole, Original concentration: 300 mg in 16.7 ml, Working stock concentration: 1 mg/ml in DMSO. • 3. Fluconazole, Original concentration: 100 mg in 50 ml, Working stock concentration: 1 mg/ml in DMSO. • 4. The final concentration was prepared in RPMI 1640 media and concentrations range was 0.01-0.5 μg/mL for amphotericin B, 0.01-2 μg/mL for posaconazole and 0.01-64 μg/mL for fluconazole. • 5. These concentrations were prepared at 2× of the required concentrations in the final assay plate.
(§4) • 1. Wells of the 96-well plates were inoculated with appropriate concentrations and volumes of drugs. • 2. Sterility control and growth controls are included in each plate. • 3. Each 96-well plate (except the control wells) contains 100 μL of double strength (twice the final antifungal drug) concentrations. • 4. 100 μL of the fungal suspension is added to 96-well plates (except the sterility control wells). • 5. The growth control wells contained 100 μL of sterile drug-free medium and 100 μL of inoculum suspension, while the sterility control wells contained 200 μl of sterile drug-free medium. • 6. Plates are then incubated at 37° C. and read at 625,430, and 530 nm wavelengths. • 7. Data from 24 hours and absorbance at 625 nm were used for analysis.
These experiments were conducted to determine the efficacy of BromAc alone and in combination with existing antifungal drugs against Aspergillus fumigatus (ATCC strain 13697).
The method used in these experiments is essentially the same as that described above in Example 5. In these experiments, however, echinocandins such as […] Caspofungin are used in place of the azole antifungals described in earlier examples.

[2] = system: Candida glabrata (clinical isolate); assay: Broth dilution susceptibility test, MIC and percent growth (Example 5)
Protocol: These experiments were conducted to determine the effect of BromAc alone and in combination with existing antifungal drugs against Candida glabrata (clinical isolate).
as §1, §2, §3, §4

[3] = system: Candida Krusei (ATCC strain 6258); assay: Broth dilution susceptibility test, MIC and percent growth (Example 6)
Protocol: as §1, §2, §3, §4
These experiments were conducted to determine the effect of BromAc alone and in combination with existing antifungal drugs against Candida Krusei (ATCC strain 6258).
The method used in these experiments is essentially the same as that described above in Example 5.

Candida auris = assay: Susceptibility assay of antifungals with BromAc (Example 4); details: for Observed inhibitory effect: Candida aurus, antifungal in combination with BromAc (5 mg/ml Acetylcysteine+12.5 μg/ml Bromelain) vs alone
Protocol: (§5) The in vitro antifungal properties of Bromelain, Acetylcysteine, BromAc, Amphotericin B, Isavuconazole, Fluconazole and Posaconazole were determined using a broth microdilution method in round bottom 96 well plates in accordance with standard procedures defined by the Clinical Laboratory Standards Institute (CLSI).
(§6) Unless otherwise described, fungal cultures were grown on potato dextrose agar plates at 35° C. until mature (appearance of conidia) and used to prepare suspensions in sterile water. Suspensions were diluted in RPMI 1:60. These suspensions were then added in equal volume to solutions containing the candidate species described above and incubated at 35° C. for 24 hr. Plates were then analysed for fungal growth inhibition and MIC values determined.
(§7) BromAc (5 mg/ml Acetylcysteine+12.5 μg/ml Bromelain) was used in combination with Amphotericin B, Isavuconazole, Posaconazole and Fluconazole. The MIC values of these four antifungal agents against the fungus described below were calculated and compared with their corresponding MIC values in the presence of BromAc, using the standard susceptibility assays described above.
(§8) The fungal strains set out in Table 2, all of which were sourced from a range of clinical isolates from Australian hospitals, were used in these experiments to gain a further understanding of the efficacy of BromAc in combination with Amphotericin B, Isavuconazole, Posaconazole and Fluconazole.

Candida glabrata = assay: as above; details: for Observed inhibitory effect: antifungal in combination with BromAc (5 mg/ml Acetylcysteine+12.5 μg/ml Bromelain) vs alone
Protocol: as §5, §6, §7, §8

Candida kruseii = assay: as above; details: antifungal in combination with BromAc (5 mg/ml Acetylcysteine+12.5 μg/ml Bromelain) vs alone
Protocol: as §5, §6, §7, §8

Candida tropicalis = assay: as above; details: antifungal in combination with BromAc (5 mg/ml Acetylcysteine+12.5 μg/ml Bromelain) vs alone
Protocol: as §5, §6, §7, §8

Cryptococcus = assay: as above; details: for Observed inhibitory effect: antifungal in combination with BromAc (5 mg/ml Acetylcysteine+12.5 μg/ml Bromelain) vs alone; for isolates with more than 10× increase: antifungal with BromAc
Protocol: as §5, §6, §7, §8

Rhizopus arrhizus = assay: Chequerboard broth microdilution antifungal susceptibility testing (MIC)
Protocol: as §6, with “Suspensions were diluted in RPMI 1:60.” left out, “determined. […] [MICA (combined)/MICA]+[MICB (combined)/MICB] MICA (combined) is the MIC of drug A when both drugs (i.e. drug A and drug B) are present and MICA is the MIC of drug A used in isolation. Similarly, MICB (combined) is the MIC of drug B when both drugs are present and MICB is the MIC of drug B used in isolation.” for “determined.”

Rhizopus microsporus = assay: as above
Protocol: as §6, with “Suspensions were diluted in RPMI 1:60.” left out, “determined. […] [MICA (combined)/MICA]+[MICB (combined)/MICB] MICA (combined) is the MIC of drug A when both drugs (i.e. drug A and drug B) are present and MICA is the MIC of drug A used in isolation. Similarly, MICB (combined) is the MIC of drug B when both drugs are present and MICB is the MIC of drug B used in isolation.” for “determined.”

Aspergillus = assay: Susceptibility assay of antifungals with BromAc (Example 4); details: antifungal in combination with BromAc (5 mg/ml Acetylcysteine+12.5 μg/ml Bromelain) vs alone
Protocol: as §5, §6, §7, §8

Cunninghamella = assay: as above; details: antifungal in combination with BromAc (5 mg/ml Acetylcysteine+12.5 μg/ml Bromelain) vs alone
Protocol: as §5, §6, §7, §8

Fusarium = assay: as above; details: antifungal in combination with BromAc (5 mg/ml Acetylcysteine+12.5 μg/ml Bromelain) vs alone
Protocol: as §5, §6, §7, §8

Licthemia = assay: as above; details: antifungal in combination with BromAc (5 mg/ml Acetylcysteine+12.5 μg/ml Bromelain) vs alone
Protocol: as §5, §6, §7, §8

Lomentospora = assay: as above; details: antifungal in combination with BromAc (5 mg/ml Acetylcysteine+12.5 μg/ml Bromelain) vs alone
Protocol: as §5, §6, §7, §8

Mucor circinelloides = assay: as above
Protocol: as §5, §6, §7, §8

Scedosporium = assay: as above; details: antifungal in combination with BromAc (5 mg/ml Acetylcysteine+12.5 μg/ml Bromelain) vs alone
Protocol: as §5, §6, §7, §8

CC[C@H](C)C[C@H](C)CCCCCCCCC(=O)N[C@H]1C[C@@H](O)[C@@H](NCCN)NC(=O)[C@@H]2[C@@H](O)CCN2C(=O)[C@H]([C@H](O)CCN)NC(=O)[C@H]([C@H](O)[C@@H](O)c2ccc(O)cc2)NC(=O)[C@@H]2C[C@@H](O)CN2C(=O)[C@H]([C@@H](C)O)NC1=O [Caspofungin]
MIC [1]: > 1 µg/mL
effect at lower concentrations (in words) [1]: almost no inhibitory effect

OC(Cn1cncn1)(Cn1cncn1)c1ccc(F)cc1F [Fluconazole]
MIC ([2]; Nakaseomyces glabratus, 50% growth inhibition, 24 hours, 625 nm): > 32 µg/mL
effect at lower concentration compared to growth control (in words) ([2]; concentrations lower than the MIC): no change
MIC ([3]; Pichia kudriavzevii, ATCC6258, 50% growth inhibition, FIG. 11): 32 µg/mL
inhibition at 32 µg/mL ([3]; Pichia kudriavzevii, ATCC6258, Posaconazole 1 ug/ml, Fluconazole 32 μg/ml, read-out: activity (growth inhibition) at its MIC): 50%
effect at lower doses / concentrations compared to GC (in words) ([3]; below the MIC (Posaconazole 0.03 μg/ml)): no efficacy
Observed inhibitory effect (Candida auris): No effect
Observed inhibitory effect (Candida glabrata): Strong (Strong = 5-10x (or greater) inhibitory effect)
Observed inhibitory effect (Candida kruseii): Strong (Strong = 5-10x (or greater) inhibitory effect)
Observed inhibitory effect (Candida tropicalis): Strong (Strong = 5-10x (or greater) inhibitory effect)
Observed inhibitory effect (Cryptococcus): Strong (Strong = 5-10x (or greater) inhibitory effect)
isolates with more than 10× increase (Cryptococcus): 5 of 5

C[C@@H](c1nc(-c2ccc(C#N)cc2)cs1)[C@](O)(Cn1cncn1)c1cc(F)ccc1F [Isavuconazole]
isolates with 10× increase (Rhizopus arrhizus; Rhizopus Arrhizus, antifungal with BromAc): 6 of 8
MIC (Rhizopus arrhizus; Rhizopus arrhizus, eight R. arrhizus strains, read-out: MIC, average over the strains): 0.8 µg/mL (≈ 1.83 µM)
MIC (Rhizopus arrhizus; Rhizopus arrhizus, isolate R. archizus 1, BromAc at constant concentration where combined, read-out: MIC): 1 µg/mL
MIC (Rhizopus arrhizus; Rhizopus arrhizus, isolate R. archizus 2, BromAc at constant concentration where combined, read-out: MIC): 1 µg/mL
MIC (Rhizopus arrhizus; Rhizopus arrhizus, isolate R. archizus 3, BromAc at constant concentration where combined, read-out: MIC): 1 µg/mL
MIC (Rhizopus arrhizus; Rhizopus arrhizus, isolate R. archizus 8, BromAc at constant concentration where combined, read-out: MIC): 1 µg/mL
MIC (Rhizopus arrhizus; Rhizopus arrhizus, isolate R. arrhizus 4, BromAc at constant concentration where combined, read-out: MIC): 1 µg/mL
MIC (Rhizopus arrhizus; Rhizopus arrhizus, isolate R. arrhizus 5, BromAc at constant concentration where combined, read-out: MIC): 0.5 µg/mL
MIC (Rhizopus arrhizus; Rhizopus arrhizus, isolate R. arrhizus 6, BromAc at constant concentration where combined, read-out: MIC): 1 µg/mL
MIC (Rhizopus arrhizus; Rhizopus arrhizus, isolate R. arrhizus 7, BromAc at constant concentration where combined, read-out: MIC): 0.5 µg/mL
Observed inhibitory effect (Rhizopus arrhizus; Rhizopus arrhizus, antifungal in combination with BromAc (5 mg/ml Acetylcysteine+12.5 μg/ml Bromelain) vs alone): Strong (Strong = 5-10x (or greater) inhibitory effect)
MICs, range over the strains (Rhizopus arrhizus; eight R. arrhizus strains): 0.5 to 2 µg/mL
isolates with more than 10× increase (Rhizopus microsporus; Rhizopus microspores, antifungal with BromAc): 9 of 10
MIC (Rhizopus microsporus; Rhizopus microsporus, eight R. microsporus strains, read-out: MIC, average over the strains): 0.9 µg/mL (≈ 2.06 µM)
MIC (Rhizopus microsporus; Rhizopus microsporus, isolate R. microsporus 1, BromAc at constant concentration where combined, read-out: MIC): 0.2 µg/mL
MIC (Rhizopus microsporus; Rhizopus microsporus, isolate R. microsporus 2, BromAc at constant concentration where combined, read-out: MIC): 0.5 µg/mL
MIC (Rhizopus microsporus; Rhizopus microsporus, isolate R. microsporus 3, BromAc at constant concentration where combined, read-out: MIC): 0.5 µg/mL
MIC (Rhizopus microsporus; Rhizopus microsporus, isolate R. microsporus 4, BromAc at constant concentration where combined, read-out: MIC): 1 µg/mL
MIC (Rhizopus microsporus; Rhizopus microsporus, isolate R. microsporus 5, BromAc at constant concentration where combined, read-out: MIC): 0.5 µg/mL
MIC (Rhizopus microsporus; Rhizopus microsporus, isolate R. microsporus 6, BromAc at constant concentration where combined, read-out: MIC): 0.5 µg/mL
MIC (Rhizopus microsporus; Rhizopus microsporus, isolate R. microsporus 7, BromAc at constant concentration where combined, read-out: MIC): 0.5 µg/mL
Observed inhibitory effect (Rhizopus microsporus; Rhizopus microsporus, antifungal in combination with BromAc (5 mg/ml Acetylcysteine+12.5 μg/ml Bromelain) vs alone): Strong (Strong = 5-10x (or greater) inhibitory effect)
MICs, range over the strains (Rhizopus microsporus; eight R. microsporus strains): 0.5 to 1 µg/mL
Observed inhibitory effect (Aspergillus): Moderate (Moderate = 1-5x inhibitory effect)
isolates with more than 10× increase (Candida auris; Candida auris, antifungal with BromAc): 4 of 5
Observed inhibitory effect (Candida auris): Strong (Strong = 5-10x (or greater) inhibitory effect)
Observed inhibitory effect (Candida glabrata): Strong (Strong = 5-10x (or greater) inhibitory effect)
isolates with more than a 10× increase in sensitivity (Candida glabrata; antifungal with BromAc): 5 of 5
Observed inhibitory effect (Candida kruseii): Strong (Strong = 5-10x (or greater) inhibitory effect)
Observed inhibitory effect (Candida tropicalis): Strong (Strong = 5-10x (or greater) inhibitory effect)
Observed inhibitory effect (Cryptococcus): Strong (Strong = 5-10x (or greater) inhibitory effect)
isolates with more than 10× increase (Cryptococcus): 5 of 5
Observed inhibitory effect (Cunninghamella): Possible
Observed inhibitory effect (Fusarium): No effect
Observed inhibitory effect (Licthemia): Possible
Observed inhibitory effect (Lomentospora): No effect
Observed inhibitory effect (Mucor circinelloides; antifungal in combination with BromAc (5 mg/ml Acetylcysteine+12.5 μg/ml Bromelain) vs alone): Strong (Strong = 5-10x (or greater) inhibitory effect)
isolates with increased sensitivity (Mucor circinelloides; antifungal with BromAc): 2 of 2
Observed inhibitory effect (Scedosporium): No effect

C[C@@H](c1ncncc1F)[C@](O)(Cn1cncn1)c1ccc(F)cc1F [Voriconazole]
MIC ([1]; Aspergillus fumigatus, ATCC13697, read-out: MIC): 2 µg/mL
effect at lower concentrations (in words) [1]: almost no inhibitory effect
